11 molecules from patent publication US4318826A, “Carbonylation catalysts” (Exxon Research & Engineering Co., priority 1980, dated 1982) can be followed below.

The nature of assay [1]: Table III: effect of cocatalyst on carbonylation of methanol to methyl acetate.
Assay [2] can be described thus: Example 7: effect of cocatalyst on production of methyl acetate from CH3 OH. To be noted: 175° C.
The procedure of assay [3]:
This conversion is run at elevated pressures, preferably from 1,500 to 3,000 psi. Reaction temperatures will range from 50° C. to 200° C., with a range of 100° C. to 150° C. preferred. Ratio of H2 to CO used will vary with reaction conditions; preferably a 1 to 1 ratio is maintained. The catalyst concentration will range from 0.01 to 20% based on the weight feed, with 0.05 to 10 % preferred.
30 ml. of hexene-1, 20 ml. of benzene, and 0.3 gm. […] The bomb was heated to 140° C. and held until the reaction was complete.

A short description of assay [4]: Example 8 / Table II: effect of catalyst on carbonylation of methanol to methyl acetate. As to conditions: CH3 I 8.0 mmole, 175° C., 1000 psi; for % Selectivity: additional product dimethyl ether.
Assay [5] is described as follows: Example 11: hydroformylation of propylene. As to conditions: 133 °C. The procedure: Reaction Conditions: 1000 psig Total pressure, CO/H2 (50/50) mixture), 60 ml benzene as solvent, 0.30-0.45 moles propylene, 0.5 mmoles catalyst (based on Rh).
Where [6] appears, read: cocatalyst 4.0 mmole, 4000 psi CO, 4 hours.
Setting [7] is: cocatalyst 8.0 mmole, 175° C., 1000 psi, CH3 I 18 hr, CH3 CH2 I 19 hr, C6 H5 I 90 hr.
[8] abbreviates: cocatalyst 8.0 mmole, 1000 psi CO, CH3 I 18 hours, CH3 CH2 I 19 hours, C6 H5 I 90 hours.
Where [9] appears, read: cocatalyst 8.0 mmole, 3.25 hr, 175° C., 4000 psi CO.
Setting [10] is: cocatalyst 16.0 mmole, 4.25 hr, 175° C., 4000 psi CO.
[11] abbreviates: catalyst 2.0 mmole, 16-19 hours (Co(C5 H7 O2)3: 67).
Where [12] appears, read: catalyst 1.0 mmole, 18-21 hours.

Read-outs that look alike come from different tables or passages of the source. Where only a bound is given, the exact number is not on record here.

On to `I` [HI, hydrogen iodide], for which, in assay [1], the “% Conversion to Methyl Acetate” value amounted to 8 and the “% Selectivity to Methyl Acetate” value is given as 47. This molecule returned a methyl acetate produced (head is a drawing) in assay [2] (setting [6]) of 6.6 mL.
`Ic1ccccc1` [C6 H5 I]: in assay [1] (setting [7]), the “% Conversion to Methyl Acetate” value was 25% and the “% Selectivity to Methyl Acetate” value was determined as 52%. Moreover, the methyl acetate produced (head is a drawing) in assay [2] (setting [8]) was determined as 22.3 mL.
`CCI` [CH3 CH2 I]: in assay [1] (setting [7]), the “% Conversion to Methyl Acetate” value turned out to be 20% and the “% Selectivity to Methyl Acetate” value is reported as 85%. The molecule also yielded a methyl acetate produced (head is a drawing) in assay [2] (setting [8]) of 17.5 mL.
The molecule `II` [Example I2, iodine] showed a methyl acetate produced (head is a drawing) in assay [2] (cocatalyst 2.0 mmole, 4000 psi CO, 4 hours) of 5.2 mL.
Consider `CI` [CH3 I, methyl iodide], for which the “% Conversion to Methyl Acetate” value in assay [1] (setting [7]) was determined as 24%; in assay [1] (setting [9]), 29%; in assay [1] (setting [10]) it was 25%. The “% Selectivity to Methyl Acetate” value in assay [1] (setting [7]) came out at 85%; in assay [1] (setting [9]) it was 97%; in assay [1] (setting [10]), 74%. Also, the methyl acetate produced (head is a drawing) came to 21.4 mL in assay [2] (setting [8]); 29.6 mL in assay [2] (cocatalyst 8.0 mmole, 4000 psi CO, 4 hours); 19.8 mL in assay [2] (cocatalyst 16.0 mmole, 4000 psi CO, 4 hours).
Consider “tetrakis tetrahydrofuran adduct of a magnesium-dicobalt hexacarbonyl bismethyldiphenylphosphine complex [[C4 H8 O]4 Mg[Co(CO)3 PCH3 (C6 H5)2]2]”, for which, in assay [3] (1500 psi, H2 :CO 1:1, 140° C.), the “hexene-1 converted to C7 aldehydes and C7 alcohols” value turned out to be 99%; the “reacted product that was an aldehyde” value came to 87%. Also, in assay [3] (description), the “conversion of 1-hexene to heptaldehydes” value is more than 99% and the “selectivity in conversion of 1-hexene to heptaldehydes” value is listed as 87%.
Take `CC(=O)[CH-]C(C)=O.CC(=O)[CH-]C(C)=O.CC(=O)[CH-]C(C)=O.[Co+3]` [Co(C5 H7 O2)3]: in assay [4] (setting [11]), the “% Conversion” value is 16% and the “% Selectivity” value stood at 23%.
For `CBr` [CH3 Br], in assay [1], the “promotional effect as cocatalyst” value was “inventive”.
For the molecule `O=[C]=[Rh]([Cl])([PH](c1ccccc1)(c1ccccc1)c1ccccc1)[PH](c1ccccc1)(c1ccccc1)c1ccccc1` [((C6 H5)3 P)2 Rh(CO)Cl], in assay [5] (1000 psig CO/H2 50/50), the “(%) n-C4 H8 O (percent straight chain isomer)” value is 56% and the “k (pseudo 1st order reaction rate constant)” value came out at 0.0744 min⁻¹. For the same molecule, in assay [5] (t1/2 = ln 2/k), the t1/2 was 9.32 min.
On to `[C-]#[O+].[C-]#[O+].[C-]#[O+].[C-]#[O+].[C-]#[O+].[C-]#[O+].[C-]#[O+].[C-]#[O+].[Co].[Co]` [Co2 (CO)8], for which, in assay [4] (setting [12]), the “% Conversion” value was determined as 3.5% and the “% Selectivity” value came out at 6.4%.
As to `[I-].[Li+]` [LiI], in assay [1], the “% Conversion to Methyl Acetate” value was found to be 0.6 and the “% Selectivity to Methyl Acetate” value came to 100. The methyl acetate produced (head is a drawing) in assay [2] (setting [6]) was determined as 1 mL.
